Test results taken from patent US9221800B2, “Isoxazole treatments for diabetes” (The Board of Regents of the University of Texas System, priority 2011, dated 2015).

Experiments:
[1] = tested on: human islets; assay: Gene expression by quantitative RT-PCR in cultured human islets; assay type: cell-based
Procedure: (§1) MIN6 cells were cultured in DMEM (Gibco), containing 25 mM glucose, 10% fetal bovine serum, 10 mM Hepes pH 7.4, 10.2 mM L-glutamine, […] sodium pyruvate, 2.5 mM β-mercaptoethanol, 100 U/ml penicillin and 100 μg/ml streptomycin at 37° C. in 10% CO2. Human islets were obtained from the ICR Basic Science Islet Distribution and from the University of Alabama, Birmingham Islet Resource Facility and were cultured in RPMI 1640 with 11 mM glucose for up to 1 year. The medium was changed twice weekly and the islets were subcultured when they reached 90% confluence. For Isx treatments, cells were incubated in medium containing either Isx or the equivalent volume of DMSO vehicle (0.04%). To measure GSIS, cells were placed in Krebs-Ringer bicarbonate/Hepes containing 0.1% bovine serum albumin and 2 mM glucose for 2 h, and stimulated for 15 min with 20 mM glucose, a 1× amino-acid mixture (concentrations as in DMEM), or 50 nM Exendin-4. U0126 (10 μM), nifedipine (3 μM), BAPTA (10 μM), wortmanin (0.5 μM) or FK506 (0.1 μM) were added for 1-24 h as indicated.
Total RNA was extracted from human islet preparations with TRI reagent according to manufacturer's protocol (Ambion). cDNA was prepared from total RNA by a mixture of random hexamer- and oligo-dT-primed reverse transcription (iScript Biorad). The expression of insulin and glucagon relative to 18S RNA was evaluated by TaqMan assays (Applied Biosystems). Relative expression of pancreatic factors was determined using Power SYBR Green PCR Master Mix (Applied Bio systems). Primer sequences for qRT-PCR are in STable 1. SYBR Green and TaqMan probe-based PCR was performed using the ABI 7500 DNA Sequence Detection System with standard fluorescent chemistries and thermal cycling conditions specified by the manufacturer: 50° C. for 2 min, 95° C. for 10 min for one cycle and an additional 40 cycles at 95° C. for 15 sec, and then 58° C. for 1 min.

[2] = tested on: human islets; assay: Insulin secretion and insulin content (ELISA) of cultured human islets; assay type: cell-based
Procedure: FIGS. 1A-E. Isx (LSH-1) induces expression of insulin and transcription factors in primary cultured human islets. (FIG. 1A) Primary human islets that had been cultured in RPMI 160 for 6 months were treated with vehicle or 40 μM Isx for 1 or 2 d. Expression of human insulin and glucagon genes was assessed by Taqman quantitative RT-PCR. (FIG. 1B) Insulin secretion measured by ELISA over 24 h from islets treated with Isx or vehicle for 1 or 2 d. (FIG. 1C) Total insulin content of islets cultured for 3 mo and fresh islets, each treated for 48 h with Isx or DMSO. (FIG. 1D) Time course of pancreatic gene induction in islets cultured for 1 year treated with DMSO (8 days) or 40 μM Isx for 2, 4 or 8 days. (FIG. 1E) Immunohistochemical staining using antibodies against insulin, BETA2, Neurogenin3 (Ngn3) and MafA of islets cultured for 2 months and treated with Isx or vehicle for 48 h. Nuclei were stained with DAPI.
FIGS. 5A-E. Gene expression induced by Isx (LSH-1) in human islet cultures. (FIG. 5A) Structure of the lead compound N-cyclopropyl-5-(thiophen-2-yl)isoxazole-3-carboxamide (Isx) used in this study. (FIG. 5B) Expression profiles of relevant islet factors by Sybr-Green qPCR analyses from human islets cultured for 1 year as in FIG. 1D. (FIG. 5C) Insulin immunohistochemical staining in human islets cultured for 2 months. Nuclei are stained with DAPI. (FIG. 5D) Immunoblotting of whole cell extracts from human islets cultured for six months treated with vehicle (DMSO) or Isx for 24 h. (FIG. 5E) Human islets cultured for 6 months were treated with DMSO (Veh) or Isx for 48 h. To implicate signaling pathways that are required for the isoxazole-driven increase in β cell function, measured as GSIS, the isoxazole-treated islets were also treated with vehicle (Veh), 10 μM U0126 (U), 10 μM Nifedipine-BAPTA (N-B), or 0.1 μM wortmannin (W) for the duration of the isoxazole treatment.
as §1, with “To measure GSIS, cells were placed in Krebs-Ringer bicarbonate/Hepes containing 0.1% bovine serum albumin and 2 mM glucose for 2 h, and stimulated for 15 min with 20 mM glucose, a 1× amino-acid mixture (concentrations as in DMEM), or 50 nM Exendin-4. U0126 (10 μM), nifedipine (3 μM), BAPTA (10 μM), wortmanin (0.5 μM) or FK506 (0.1 μM) were added for 1-24 h as indicated.” left out

[3] = tested on: MIN6 cells; assay: Insulin secretion (GSIS) and insulin content in MIN6 cells; assay type: cell-based, mouse
Procedure: as §1

[4] = target: T1, CBP (Homo sapiens, UniProt Q92793); assay: HAT activity of HATs expressed in 293 cells; assay type: cell-based; settings: combination of ERK2 expression and Isx, 24 h (FIG. 8)
T1 construct: expressed in transfected cells; host or cells: HEK293
Procedure: (§2) (FIG. 8A) Combined effect of Isx treatment for 24 h and WT ERK2 (W) or kinase dead K52R ERK2 (R) on the HAT activities of p300, and (FIG. 8B) other HATs, CBP, PCAF and GCN5-L2, transfected in HEK293 cells.

[5] = target: T2, PCAF (Homo sapiens, UniProt Q92831); assay: HAT activity of HATs expressed in 293 cells; assay type: cell-based; settings: combination of ERK2 expression and Isx, 24 h (FIG. 8)
T2 construct: expressed in transfected cells; host or cells: HEK293
Procedure: as §2

[6] = human islets in culture for 6 months, Isx for 1-2 days (40 μM, FIG. 1A)
[7] = islets in culture for one year, 40 μM Isx 2-8 days

T1 sequence (Q92793 whole entry): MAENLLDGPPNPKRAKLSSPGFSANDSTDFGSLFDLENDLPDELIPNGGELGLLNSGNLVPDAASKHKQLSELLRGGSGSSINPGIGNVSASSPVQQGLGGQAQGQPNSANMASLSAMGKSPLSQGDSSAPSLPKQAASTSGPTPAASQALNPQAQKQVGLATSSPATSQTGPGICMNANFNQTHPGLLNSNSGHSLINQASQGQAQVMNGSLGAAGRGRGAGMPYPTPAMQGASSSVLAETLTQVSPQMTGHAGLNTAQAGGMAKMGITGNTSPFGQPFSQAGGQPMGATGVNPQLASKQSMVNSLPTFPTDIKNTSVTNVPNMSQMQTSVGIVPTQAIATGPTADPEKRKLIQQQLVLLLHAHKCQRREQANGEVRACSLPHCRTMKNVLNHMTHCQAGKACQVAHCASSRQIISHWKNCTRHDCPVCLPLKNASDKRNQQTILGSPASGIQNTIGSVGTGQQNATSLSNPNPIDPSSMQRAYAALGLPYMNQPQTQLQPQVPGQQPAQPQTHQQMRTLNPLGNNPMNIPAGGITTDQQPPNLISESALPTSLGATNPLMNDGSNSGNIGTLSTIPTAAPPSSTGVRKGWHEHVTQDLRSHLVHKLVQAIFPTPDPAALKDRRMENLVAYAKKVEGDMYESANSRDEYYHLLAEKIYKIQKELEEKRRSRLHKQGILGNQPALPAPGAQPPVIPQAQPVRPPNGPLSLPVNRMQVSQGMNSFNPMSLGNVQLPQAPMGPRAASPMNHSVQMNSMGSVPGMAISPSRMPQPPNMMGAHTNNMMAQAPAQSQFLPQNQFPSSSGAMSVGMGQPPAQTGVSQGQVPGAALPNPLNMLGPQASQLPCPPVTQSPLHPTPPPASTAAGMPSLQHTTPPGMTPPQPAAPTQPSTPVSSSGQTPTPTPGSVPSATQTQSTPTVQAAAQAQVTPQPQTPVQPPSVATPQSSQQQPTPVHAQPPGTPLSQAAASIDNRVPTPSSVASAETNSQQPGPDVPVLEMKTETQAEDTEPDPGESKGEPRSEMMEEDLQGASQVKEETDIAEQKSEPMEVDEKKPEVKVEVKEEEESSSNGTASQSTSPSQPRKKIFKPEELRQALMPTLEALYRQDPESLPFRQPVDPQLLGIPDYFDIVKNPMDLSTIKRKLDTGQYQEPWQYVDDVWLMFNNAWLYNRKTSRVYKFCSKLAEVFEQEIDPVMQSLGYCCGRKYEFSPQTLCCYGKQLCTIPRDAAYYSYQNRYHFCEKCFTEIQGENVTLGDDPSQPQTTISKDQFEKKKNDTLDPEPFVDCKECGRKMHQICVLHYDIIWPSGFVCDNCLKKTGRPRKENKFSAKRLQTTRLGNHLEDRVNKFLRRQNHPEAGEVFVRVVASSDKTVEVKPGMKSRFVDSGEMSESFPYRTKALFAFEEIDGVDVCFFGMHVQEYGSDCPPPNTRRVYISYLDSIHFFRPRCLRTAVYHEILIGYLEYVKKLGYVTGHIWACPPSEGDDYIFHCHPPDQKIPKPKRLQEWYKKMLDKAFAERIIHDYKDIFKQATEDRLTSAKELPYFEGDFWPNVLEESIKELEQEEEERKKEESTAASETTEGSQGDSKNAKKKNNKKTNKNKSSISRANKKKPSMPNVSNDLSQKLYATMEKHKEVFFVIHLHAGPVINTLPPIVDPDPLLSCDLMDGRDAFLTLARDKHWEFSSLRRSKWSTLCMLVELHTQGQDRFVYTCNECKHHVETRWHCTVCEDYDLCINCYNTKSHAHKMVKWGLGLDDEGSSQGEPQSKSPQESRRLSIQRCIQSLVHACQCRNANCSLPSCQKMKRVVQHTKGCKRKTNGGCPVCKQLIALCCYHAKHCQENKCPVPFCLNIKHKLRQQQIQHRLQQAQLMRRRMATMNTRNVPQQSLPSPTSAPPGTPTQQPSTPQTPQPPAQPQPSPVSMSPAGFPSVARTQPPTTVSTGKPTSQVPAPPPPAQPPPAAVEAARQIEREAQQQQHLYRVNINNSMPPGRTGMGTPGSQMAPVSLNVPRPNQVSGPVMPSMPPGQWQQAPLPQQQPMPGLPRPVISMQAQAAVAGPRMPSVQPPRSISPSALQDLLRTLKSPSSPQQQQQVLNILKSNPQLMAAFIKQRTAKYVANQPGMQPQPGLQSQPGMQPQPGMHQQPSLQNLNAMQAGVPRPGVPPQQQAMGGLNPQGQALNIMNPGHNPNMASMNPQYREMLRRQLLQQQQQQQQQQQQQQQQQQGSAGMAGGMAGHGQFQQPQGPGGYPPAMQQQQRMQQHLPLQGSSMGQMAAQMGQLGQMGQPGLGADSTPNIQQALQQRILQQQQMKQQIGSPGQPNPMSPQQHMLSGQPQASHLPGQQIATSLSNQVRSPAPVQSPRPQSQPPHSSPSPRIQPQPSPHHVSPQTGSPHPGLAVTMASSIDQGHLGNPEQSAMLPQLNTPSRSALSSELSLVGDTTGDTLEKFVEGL
T2 sequence (Q92831 whole entry, species assumed): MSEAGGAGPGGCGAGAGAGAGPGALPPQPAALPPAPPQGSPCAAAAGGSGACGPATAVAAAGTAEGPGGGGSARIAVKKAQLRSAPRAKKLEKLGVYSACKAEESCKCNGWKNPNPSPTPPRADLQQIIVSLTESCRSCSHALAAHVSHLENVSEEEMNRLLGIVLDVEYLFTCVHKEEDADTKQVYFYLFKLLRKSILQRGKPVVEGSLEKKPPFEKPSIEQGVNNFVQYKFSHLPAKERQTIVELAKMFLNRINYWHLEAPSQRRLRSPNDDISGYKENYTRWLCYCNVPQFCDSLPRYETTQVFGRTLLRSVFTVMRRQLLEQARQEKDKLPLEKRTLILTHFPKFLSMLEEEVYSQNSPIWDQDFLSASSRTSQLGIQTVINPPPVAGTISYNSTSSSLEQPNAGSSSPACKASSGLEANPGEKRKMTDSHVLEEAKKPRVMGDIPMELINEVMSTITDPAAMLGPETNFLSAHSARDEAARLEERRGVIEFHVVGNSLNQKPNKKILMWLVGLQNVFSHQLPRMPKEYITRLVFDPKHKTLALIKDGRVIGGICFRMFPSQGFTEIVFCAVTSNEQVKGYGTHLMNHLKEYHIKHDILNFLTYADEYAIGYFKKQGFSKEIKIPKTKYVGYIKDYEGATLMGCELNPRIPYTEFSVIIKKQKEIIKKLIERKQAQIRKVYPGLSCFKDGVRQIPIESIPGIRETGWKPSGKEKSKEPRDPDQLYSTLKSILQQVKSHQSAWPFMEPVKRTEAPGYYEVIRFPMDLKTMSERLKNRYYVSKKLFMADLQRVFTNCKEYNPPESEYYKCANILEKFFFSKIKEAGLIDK

expression of glucokinase and Glut2 ([1]; islets in culture for one year, peaking after 4 days of exposure): increased markedly
CBP HAT activity [4]: increased
PCAF HAT activity [5]: not
Compound: O=C(NC1CC1)c1cc(-c2cccs2)on1 [Isx, N-cyclopropyl-5-(thiophen-2-yl)isoxazole-3-carboxamide]
glucagon mRNA decrease [1, 6]: ~80%
preproinsulin mRNA [1, 6]: large increase
PCNA and Oct4 mRNA expression ([1]; islets in culture for one year): Neither PCNA, an indicator of proliferation, nor Oct4, a factor associated with stem cells, showed consistent or substantial changes in mRNA expression
increases in PDX-1, the Hnfs, and Isl1 mRNA [1, 7]: relatively small
increases in the other factors (mRNA; other than PDX-1, the Hnfs, Isl1) [1, 7]: more than 10 fold
Preproinsulin mRNA increase ([1]; islets in culture for one year, after several days of Isx exposure (FIG. 1D)): ≥ 50 fold
Preproinsulin mRNA increase ([1]; islets in culture for one year, at 24 h (FIG. 1D)): 10 fold
increase of insulin content of fresh islets ([2]; 2-day exposure to Isx): ~25%
Insulin content relative to the insulin content of islets isolated only 1 week earlier ([2]; 3 month-old islets treated with Isx (FIG. 1C)): ~75%
Insulin content increase ([2]; 3 month-old islets, Isx 48 h (FIG. 1C)): ~10 fold
Insulin secreted over a 24-h period ([2]; human islets in culture for 6 months, Isx 1 or 2 d (FIG. 1B)): markedly increased
insulin content ([3]; Isx 24 or 48 h (FIG. 2D)): relatively small increase
Glucose-stimulated insulin secretion (GSIS) increase ([3]; Isx pretreatment 48 h (FIG. 2C)): ~4 fold
increase of stimulation of insulin secretion by glucose, amino acids and exendin-4, individually and in combination ([3]; Isx pretreatment 48 h (FIG. 2E)): 2 to 5 fold
